Measured values as given in patent publication US11077163B2, “Peptide for treating ocular diseases and composition for treating ocular diseases comprising same” (GemVax & KAEL CO., LTD., priority 2015, dated 2021).

What was measured:
Assay type in all cases: in vivo, Brown Norway rats
[1] = tested on: laser-induced choroidal neovascularization (CNV); assay: Angiographic leakage in the choroid by fluorescein angiography (FAG) in laser-induced CNV animal model; conditions: subcutaneous once a day, FAG at 2 weeks after laser
From the text: Brown Norway rats were anesthetized, and pupils of the eyes were dilated using 0.5% phenylephrine (pupillary dilatation). The target rats having the dilated pupils of the eyes were irradiated with a 577 nm laser (577 nm, diode, 10 μm, 0.05 seconds) 6 to 8 times per eye to cause neovascularization in the choroid. Upon laser irradiation, the eyes were covered with a cover glass, and the rupture of Bruch's membranes was confirmed from the fact that bubbles occurred during irradiation with lasers using a slit lamp delivery system. In a laser-induced CNV […] model, the rats were randomized to experimental groups in which the peptide pep1 prepared by the method disclosed in Example 1 was administered at three doses of 0.1, 1, and 10 nM, and the control (vehicle) in which pep1 was not administered, and a drug was subcutaneously administered to the rats once a day for a period of time starting from the day before 3 days of laser irradiation to 2 weeks after the laser irradiation. To compare the CNV activities between various groups, a Kruskal-Wallis test was used. In this case, the comparison between two groups was performed using a Mann-Whitney U test. A p value was considered to be statistically significant when the p value was less than 0.05. After CNV was induced with lasers, the rats in the groups in which pep1 was administered and the rats in the control were anesthetized after the elapse of 2 weeks, and a contrast medium was intraperitoneally injected at a dose of 0.1 mL (10% fluorescein disodium salt). Levels of angiographic leakage in the choroid between the control and the groups in which pep1 was administered were compared using fluorescein angiography (FAG). The groups in which pep1 was administered and the control complied with the experimental groups disclosed in Example 2, and the leakage levels at all lesions in each of the groups were measured to check whether there was a difference in angiographic leakage in the choroid between the groups. […]

[2] = tested on: laser-induced choroidal neovascularization (CNV); assay: CNV thickness by optical coherence tomography (OCT) in laser-induced CNV animal model; conditions: subcutaneous once a day
From the text: Brown Norway rats were anesthetized, and pupils of the eyes were dilated using 0.5% phenylephrine (pupillary dilatation). The target rats having the dilated pupils of the eyes were irradiated with a 577 nm laser (577 nm, diode, 10 μm, 0.05 seconds) 6 to 8 times per eye to cause neovascularization in the choroid. Upon laser irradiation, the eyes were covered with a cover glass, and the rupture of Bruch's membranes was confirmed from the fact that bubbles occurred during irradiation with lasers using a slit lamp delivery system. In a laser-induced CNV […] model, the rats were randomized to experimental groups in which the peptide pep1 prepared by the method disclosed in Example 1 was administered at three doses of 0.1, 1, and 10 nM, and the control (vehicle) in which pep1 was not administered, and a drug was subcutaneously administered to the rats once a day for a period of time starting from the day before 3 days of laser irradiation to 2 weeks after the laser irradiation. To compare the CNV activities between various groups, a Kruskal-Wallis test was used. […] The groups in which pep1 was administered and the control complied with the experimental groups disclosed in Example 2, and the thicknesses of all lesions in each of the groups were measured to check whether there was a difference in CNV thicknesses between the groups.

[3] = tested on: laser-induced choroidal neovascularization (CNV); assay: CNV area by isolectin staining of retinal pigment epithelium-choroid-sclera tissues in laser-induced CNV animal model; conditions: subcutaneous once a day, isolectin-stained area at 2 weeks after laser
From the text: Brown Norway rats were anesthetized, and pupils of the eyes were dilated using 0.5% phenylephrine (pupillary dilatation). The target rats having the dilated pupils of the eyes were irradiated with a 577 nm laser (577 nm, diode, 10 μm, 0.05 seconds) 6 to 8 times per eye to cause neovascularization in the choroid. Upon laser irradiation, the eyes were covered with a cover glass, and the rupture of Bruch's membranes was confirmed from the fact that bubbles occurred during irradiation with lasers using a slit lamp delivery system. […] An area of tissues stained with isolectin specific to vascular endothelial cells was measured to determine CNV areas in the control and the groups in which pep1 was administered. The groups in which pep1 was administered and the control complied with the experimental groups disclosed in Example 2, and the thicknesses of all lesions in each of the groups were measured to check whether there was a difference in CNV areas between the groups.

Sequence: EARPALLTSRLRFIPK (listed as Homo sapiens) [pep1, telomerase-derived peptide of 16 amino acids, location [611-626] on human telomerase]
- angiographic leakage level compared to the control ([1]; all groups 0.1, 1 and 10 nM): reduced
- ratio of lesions with Grade 2B (clinically severe leakage level) compared to the control ([1]; all groups 0.1, 1 and 10 nM): reduced
- ratio of lesions with Grade 2B (clinically severe leakage level) compared to the control ([1]; groups at 1 and 10 nM): drastically reduced
- CNV thickness compared to the control ([2]; all groups 0.1, 1 and 10 nM, from 3 days before to 2 weeks after laser irradiation, OCT at 2 weeks): statistically significantly reduced
- CNV thickness compared to the control ([2]; group at 1 nM, OCT at 2 weeks after laser): most drastically reduced
- CNV area compared to the control ([3]; all groups 0.1, 1 and 10 nM): statistically significantly reduced
- CNV area compared to the control ([3]; group at 1 nM): most drastically reduced
